Measurements published in PubChem BioAssay AID1963840 (Molecular Pharmacology Branch, DTP, NCI, 2024).

System: 695427-040-R-J1-PDC complex spheroid viability
Assay: Anticancer human tumor 695427-040-R-J1-PDC patient-derived colon adenocarcinoma cell line growth inhibition [POLQ]
Settings: for IC50: curve of first compound; for viability, T/C: stronger effect = lower value
Description: Multicellular complex tumor spheroid response to Polymerase (POL) inhibitors (novobiocin, ART-558, RP6685) in combination with a variety of drugs and investigational agents in selected tumor cell lines
The POL inhibitors (novobiocin, ART-558, and RP6685) were evaluated both individually and in combination with standard of care and investigational anticancer small molecules within a complex spheroid model of solid tumors. . Complex spheroids include a stromal component modeled by human endothelial cells (HUVEC) and fibroblasts modeled by human mesenchymal stem cells (MSCs). The concentration ranges selected for each drug and investigational agent were based upon clinically achievable concentrations if the clinical Cmax of the agent was known.
Compounds. The drugs and investigational agents: novobiocin (NSC847541), ART-558 (NSC835418), RP-6685 (NSC848927), peposertib (NSC802822), ceralasertib (NSC780249), elimusertib (NSC800525), camonsertib (NSC841442), AZD-1390 (NSC803789), olaparib (NSC753686), talazoparib (NSC767125), rucaparib (NSC756644), sotorasib (NSC818433), MRTX-1133 (NSC836407), SN-38 (NSC673596), topotecan (NSC609699), epotoside (NSC141540), doxorubicin (NSC123127), gemcitabine (NSC613327), 5-fluorouracil (NSC19893), paclitaxel (NSC125973), vemurafenib (NSC761431), MSA-2 (NSC828583), SN-011 (NSC837082), adavosertib (NSC754352), prexasertib (NSC758257), carboplatin (NSC241240) and oxaliplatin (NSC266046), were obtained from the National Cancer Institute (NCI) Developmental Therapeutics Program Chemical Repository (21). The FDA-approved anticancer drug set is available from the Developmental Therapeutics Program at https://dtp.cancer.gov/organization/dscb/obtaining/. […] The stock solutions were prepared in dimethyl sulfoxide (DMSO, Sigma-Aldrich, St. Louis, MO, cat. D2650), except for the platinum compounds which were prepared in saline (Quality Biological, Gaithersburg, MD, cat. 114-055-101), at 800-fold the tested concentration and stored at -70 degrees C prior to their use. All drugs and investigational agents were tested over a range starting from a high concentration at or near the clinical Cmax and decreasing in half-log increments. If the clinical Cmax for an agent had not been determined, the highest concentration tested was 10 microM, except for SN-38, which was tested at a high concentration of 1 microM.
Cell Culture. All cells were maintained in an incubator at 37 degrees C and 5% CO2 with 95% humidity. The PDC lines were cultured according to standard operating procedures established by the NCI PDMR (https://pdmr.cancer.gov). Table 3 of the manuscript, lists the cell lines along with the number of the three cell types plated to form the mct-spheroids and media for tumor cell growth. After thawing, all PDC lines, except 997537-175-T-J1-PDC and 415267-285-R-J2-PDC, were cultured in Matrigel-coated flasks prepared with a working solution of 1X Ham's F-12 nutrient mix, without supplementation (Thermo Fisher Scientific, cat. 11765054), 100 U/mL penicillin-streptomycin (Thermo Fisher Scientific, cat. 15140122), and 2.5% Matrigel (Corning Inc., Corning, NY, cat. 354248) for the first three passages. The two PDC lines 997537-175-T-J1-PDC and 415267-285-R-J2-PDC were cultured on uncoated flasks. The 857933-349-R-J2-PDC line was cultured in 6C/Colon 1B media containing advanced DMEM/F-12 (Thermo Fisher Scientific, cat. 12634028), 10 mM HEPES (Thermo Fisher Scientific, cat. 15630080), 1X GlutaMAX supplement (Thermo Fisher Scientific, cat. 35050061), 0.1 mg/mL primocin (InvivoGen, San Diego, CA, cat. ant-pm-2), 10% defined fetal bovine serum, heat inactivated (HyClone Laboratories Inc., Logan, UT, cat. SH30070.03HI), 50% L-WRN conditioned media (ATCC, cat. CRL-3276), 1.25 mM N-Acetyl-L-cysteine (Sigma-Aldrich, cat. A9165), 10 mM nicotinamide (Sigma-Aldrich, cat. N0636), 1X B-27 supplement (Thermo Fisher Scientific, cat. 17504044), 1X N-2 supplement (Thermo Fisher Scientific, cat. […]
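Further: spheroids exposed to compounds for seven days.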
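Wherever viability, T/C is given: 100% = DMSO vehicle control viability.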

CC(=O)O[C@H]1C(=O)[C@@]2(C)[C@H]([C@H](OC(=O)c3ccccc3)[C@]3(O)C[C@H](OC(=O)[C@H](O)[C@@H](NC(=O)c4ccccc4)c4ccccc4)C(C)=C1C3(C)C)[C@]1(OC(C)=O)CO[C@@H]1C[C@@H]2O + Cc1cccc(N(C)C(=O)C2C(O)CCN2c2nc(C)cc(C(F)(F)F)c2C#N)c1
IC50 (second compound 0.0316 µM): > 3 µM | IC50 (second compound 0.1 µM): > 3 µM | IC50 (second compound 0.316 µM): > 3 µM | IC50 (second compound 1 µM): > 3 µM | IC50 (second compound 3.16 µM): > 3 µM | IC50 (second compound 10 µM): > 3 µM | viability, T/C (second compound 0.0316 µM, first compound 0.00949 µM): 96.5% | viability, T/C (second compound 0.0316 µM, first compound 0.03 µM): 102% | viability, T/C (second compound 0.0316 µM, first compound 0.0949 µM): 96.3% | viability, T/C (second compound 0.0316 µM, first compound 0.3 µM): 98.9% | viability, T/C (second compound 0.0316 µM, first compound 0.949 µM): 94.7% | viability, T/C (second compound 0.0316 µM, first compound 3 µM): 77.9% | viability, T/C (second compound 0.1 µM, first compound 0.00949 µM): 112% | viability, T/C (second compound 0.1 µM, first compound 0.03 µM): 106% | viability, T/C (second compound 0.1 µM, first compound 0.0949 µM): 91.8% | viability, T/C (second compound 0.1 µM, first compound 0.3 µM): 95.3% | viability, T/C (second compound 0.1 µM, first compound 0.949 µM): 98.3% | viability, T/C (second compound 0.1 µM, first compound 3 µM): 79.7% | viability, T/C (second compound 0.316 µM, first compound 0.00949 µM): 111% | viability, T/C (second compound 0.316 µM, first compound 0.03 µM): 94.8% | viability, T/C (second compound 0.316 µM, first compound 0.0949 µM): 95% | viability, T/C (second compound 0.316 µM, first compound 0.3 µM): 89.5% | viability, T/C (second compound 0.316 µM, first compound 0.949 µM): 104% | viability, T/C (second compound 0.316 µM, first compound 3 µM): 78.7% | viability, T/C (second compound 1 µM, first compound 0.00949 µM): 102% | viability, T/C (second compound 1 µM, first compound 0.03 µM): 93.3% | viability, T/C (second compound 1 µM, first compound 0.0949 µM): 91.9% | viability, T/C (second compound 1 µM, first compound 0.3 µM): 98.3% | viability, T/C (second compound 1 µM, first compound 0.949 µM): 101% | viability, T/C (second compound 1 µM, first compound 3 µM): 73.1% | viability, T/C (second compound 3.16 µM, first compound 0.00949 µM): 97.4% | viability, T/C (second compound 3.16 µM, first compound 0.03 µM): 94.2% | viability, T/C (second compound 3.16 µM, first compound 0.0949 µM): 91.8% | viability, T/C (second compound 3.16 µM, first compound 0.3 µM): 88.8% | viability, T/C (second compound 3.16 µM, first compound 0.949 µM): 97% | viability, T/C (second compound 3.16 µM, first compound 3 µM): 80.6% | viability, T/C (second compound 10 µM, first compound 0.00949 µM): 91.3% | viability, T/C (second compound 10 µM, first compound 0.03 µM): 83.9% | viability, T/C (second compound 10 µM, first compound 0.0949 µM): 87.9% | viability, T/C (second compound 10 µM, first compound 0.3 µM): 85.1% | viability, T/C (second compound 10 µM, first compound 0.949 µM): 94.8% | viability, T/C (second compound 10 µM, first compound 3 µM): 84.2%

CNCc1ccc(-c2[nH]c3cc(F)cc4c3c2CCNC4=O)cc1 + Cc1cccc(N(C)C(=O)C2C(O)CCN2c2nc(C)cc(C(F)(F)F)c2C#N)c1
IC50 (second compound 0.0316 µM): > 10 µM | IC50 (second compound 0.1 µM): > 10 µM | IC50 (second compound 0.316 µM): > 10 µM | IC50 (second compound 1 µM): > 10 µM | IC50 (second compound 3.16 µM): > 10 µM | IC50 (second compound 10 µM): > 10 µM | viability, T/C (second compound 0.0316 µM, first compound 0.0316 µM): 102% | viability, T/C (second compound 0.0316 µM, first compound 0.1 µM): 104% | viability, T/C (second compound 0.0316 µM, first compound 0.316 µM): 105% | viability, T/C (second compound 0.0316 µM, first compound 1 µM): 96.8% | viability, T/C (second compound 0.0316 µM, first compound 3.16 µM): 108% | viability, T/C (second compound 0.0316 µM, first compound 10 µM): 109% | viability, T/C (second compound 0.1 µM, first compound 0.0316 µM): 111% | viability, T/C (second compound 0.1 µM, first compound 0.1 µM): 100% | viability, T/C (second compound 0.1 µM, first compound 0.316 µM): 95.9% | viability, T/C (second compound 0.1 µM, first compound 1 µM): 95.3% | viability, T/C (second compound 0.1 µM, first compound 3.16 µM): 105% | viability, T/C (second compound 0.1 µM, first compound 10 µM): 108% | viability, T/C (second compound 0.316 µM, first compound 0.0316 µM): 104% | viability, T/C (second compound 0.316 µM, first compound 0.1 µM): 99.3% | viability, T/C (second compound 0.316 µM, first compound 0.316 µM): 104% | viability, T/C (second compound 0.316 µM, first compound 1 µM): 103% | viability, T/C (second compound 0.316 µM, first compound 3.16 µM): 102% | viability, T/C (second compound 0.316 µM, first compound 10 µM): 99.6% | viability, T/C (second compound 1 µM, first compound 0.0316 µM): 92.7% | viability, T/C (second compound 1 µM, first compound 0.1 µM): 93.9% | viability, T/C (second compound 1 µM, first compound 0.316 µM): 93.6% | viability, T/C (second compound 1 µM, first compound 1 µM): 98% | viability, T/C (second compound 1 µM, first compound 3.16 µM): 110% | viability, T/C (second compound 1 µM, first compound 10 µM): 102% | viability, T/C (second compound 3.16 µM, first compound 0.0316 µM): 99% | viability, T/C (second compound 3.16 µM, first compound 0.1 µM): 98.1% | viability, T/C (second compound 3.16 µM, first compound 0.316 µM): 98.4% | viability, T/C (second compound 3.16 µM, first compound 1 µM): 103% | viability, T/C (second compound 3.16 µM, first compound 3.16 µM): 108% | viability, T/C (second compound 3.16 µM, first compound 10 µM): 104% | viability, T/C (second compound 10 µM, first compound 0.0316 µM): 92.3% | viability, T/C (second compound 10 µM, first compound 0.1 µM): 92.1% | viability, T/C (second compound 10 µM, first compound 0.316 µM): 88.9% | viability, T/C (second compound 10 µM, first compound 1 µM): 93.2% | viability, T/C (second compound 10 µM, first compound 3.16 µM): 104% | viability, T/C (second compound 10 µM, first compound 10 µM): 104%
